Calls of active or inactive are those of the source. The rule behind the calls is not given here.
How the values were obtained:
[1] = biological target: Transcriptional activator Myb (Homo sapiens, UniProt P10242); assay: Inhibition of c-Myb (unknown origin) expressed in HEK293T cells measured after 16 hrs by steady-glo luciferase reporter gene assay; type: cell-based
HCT-116 [2] = assay: Cytotoxicity against human HCT-116 cells assessed as reduction in cell viability measured after 72 hrs by MTT assay; type: functional, cell-based; conditions: HCT-116, 72 h
[3] = Cytotoxicity against human EA.hy 926 cells assessed as reduction in cell viability measured after 72 hrs by MTT assay; type: toxicity, cell-based
HCT-116 [4] = assay: Cytotoxicity against p53-deficient human HCT-116 cells assessed as reduction in cell viability measured after 72 hrs by MTT assay; type: functional, cell-based; conditions: HCT-116, 72 h
518A2 [5] = assay: Cell cycle arrest in human […] cells assessed as increase in accumulation at sub-G1 phase at 25 nM measured after 6 to 24 hrs by propidium iodide staining based FACS analysis; type: functional; conditions: time 6-24 hrs
[6] = Cytotoxicity against human U-87 cells assessed as reduction in cell viability measured after 72 hrs by MTT assay; type: functional, cell-based, U-87MG ATCC; conditions: U-87 MG
[7] = Effect on angiogenic activity in 24 hrs post-fertilized fil1/EGFP transgenic zebrafish embryo assessed as subintestinal vessel area at 100 nM measured after 48 hrs by fluorescence microscopy (reference value: 100%); type: toxicity, Danio rerio; conditions: 0.1 µM
[8] = biological target: T1, Caspase-3/Caspase-7 (Homo sapiens) (UniProt P42574+P55210); assay: Activation of caspase-3/7 activity in human 518A2 cells at 25 nM preincubated for 24 hrs followed by caspase-3/7 fluorogenic substrate addition and measured after 60 mins by fluorescence assay; type: cell-based; conditions: filed as activator, time 25.0 hrs
T1 sequence (P42574 whole entry, looked up, the tested form may be a part): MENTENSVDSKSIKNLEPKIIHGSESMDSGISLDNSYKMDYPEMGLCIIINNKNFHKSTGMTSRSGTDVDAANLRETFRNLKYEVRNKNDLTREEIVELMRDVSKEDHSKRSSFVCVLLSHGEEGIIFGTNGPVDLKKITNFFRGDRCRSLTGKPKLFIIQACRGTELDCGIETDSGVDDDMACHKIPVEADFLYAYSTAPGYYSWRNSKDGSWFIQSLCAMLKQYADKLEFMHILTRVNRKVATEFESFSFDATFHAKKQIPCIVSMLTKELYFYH
T1 sequence (P55210 whole entry, looked up, the tested form may be a part): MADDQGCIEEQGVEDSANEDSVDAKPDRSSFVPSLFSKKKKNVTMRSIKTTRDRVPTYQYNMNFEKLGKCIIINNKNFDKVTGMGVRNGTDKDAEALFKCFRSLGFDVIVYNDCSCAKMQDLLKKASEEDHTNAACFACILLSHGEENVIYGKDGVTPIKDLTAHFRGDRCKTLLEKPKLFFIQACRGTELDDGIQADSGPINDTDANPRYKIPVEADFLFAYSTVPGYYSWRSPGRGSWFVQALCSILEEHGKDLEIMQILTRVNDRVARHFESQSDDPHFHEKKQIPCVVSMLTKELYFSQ

Tubulin (Homo sapiens) [9] = biological target: T2, Tubulin (Homo sapiens) (UniProt P68371+Q9H4B7+P0DPH7+P68366+Q13509+Q71U36+P04350+Q3ZCM7+P07437+P68363+Q9BQE3+Q6PEY2+Q13885+Q9BVA1+Q9BUF5); assay: Induction of microtubule fragmentation in human 518A2 cells at 25 nM measured after 24 hrs by immunofluorescence assay; type: cell-based
MCF7 = assay: Cytotoxicity against human MCF7 cells assessed as reduction in cell viability measured after 72 hrs by MTT assay; type: functional, cell-based; conditions: MCF7, 72 h
Sus scrofa = species on record: Sus scrofa; assay: Inhibition of porcine brain tubulin polymerization at 5 uM measured at 10 mins interval for 100 mins by turbidimetric assay; type: tissue-based
KB-V1 [10] = assay: Cytotoxicity against human multidrug-resistant KB-V1 cells assessed as reduction in cell viability measured after 72 hrs by MTT assay; type: functional, cell-based; conditions: KB-V1, 72 h
[11] = Cytotoxicity against HDFa cells assessed as reduction in cell viability at 0.0005 to 100 uM measured after 72 hrs by MTT assay; type: toxicity, cell-based; conditions: human, dose 0.0005-100 µM
[12] = Effect on angiogenic activity in human EA.hy 926 cells assessed as reduction in vessel like 2D structure at 25 nM measured after 5 hrs by light microscopy; type: toxicity, cell-based; conditions: ea.hy 926, 5 h, 0.025 µM
518A2 [13] = assay: Cell cycle arrest in human […] cells assessed as increase in accumulation at G2/M phase at 25 nM measured after 6 to 24 hrs by propidium iodide staining based FACS analysis; type: functional; conditions: time 6-24 hrs
HeLa = assay: Cytotoxicity against human HeLa cells assessed as reduction in cell viability measured after 72 hrs by MTT assay; type: functional, cell-based
518A2 [14] = assay: Cytotoxicity against human 518A2 cells assessed as reduction in cell viability measured after 72 hrs by MTT assay; type: functional, cell-based; conditions: 518A2, 72 h
Tubulin (Homo sapiens) [15] = biological target: T2, Tubulin (Homo sapiens); assay: Induction of microtubule fragmentation in human 518A2 cells assessed as appearance of area with transverse arcs at 25 nM measured after 24 hrs by immunofluorescence assay; type: cell-based
Tubulin (Homo sapiens) [16] = biological target: T2, Tubulin (Homo sapiens); assay: Induction of microtubule fragmentation in human 518A2 cells assessed as appearance of area with dorsal stress fibre at 25 nM measured after 24 hrs by immunofluorescence assay; type: cell-based
KB-V1 [17] = assay: Cytotoxicity against human multidrug-resistant KB-V1 cells assessed as reduction in cell viability measured after 72 hrs in presence of verapamil by MTT assay; type: functional, cell-based; conditions: KB-V1, 72 h
HT-29 = assay: Cytotoxicity against human HT-29 cells assessed as reduction in cell viability measured after 72 hrs by MTT assay; type: functional, cell-based; conditions: HT-29, 72 h
[18] = biological target: T1, Caspase-3/Caspase-7 (Homo sapiens); assay: Activation of caspase-3/7 activity in human 518A2 cells at 1 uM preincubated for 6 hrs followed by caspase-3/7 fluorogenic substrate addition and measured after 60 mins by fluorescence assay; type: cell-based; conditions: filed as activator, time 7.0 hrs
[19] = Hydrolytic stability of compound in DMSO-d6/D2O measured after 7 days by 1H-NMR analysis; type: physicochemical; conditions: 168 h; time 7 day

Sequence of Transcriptional activator Myb (P10242 whole entry): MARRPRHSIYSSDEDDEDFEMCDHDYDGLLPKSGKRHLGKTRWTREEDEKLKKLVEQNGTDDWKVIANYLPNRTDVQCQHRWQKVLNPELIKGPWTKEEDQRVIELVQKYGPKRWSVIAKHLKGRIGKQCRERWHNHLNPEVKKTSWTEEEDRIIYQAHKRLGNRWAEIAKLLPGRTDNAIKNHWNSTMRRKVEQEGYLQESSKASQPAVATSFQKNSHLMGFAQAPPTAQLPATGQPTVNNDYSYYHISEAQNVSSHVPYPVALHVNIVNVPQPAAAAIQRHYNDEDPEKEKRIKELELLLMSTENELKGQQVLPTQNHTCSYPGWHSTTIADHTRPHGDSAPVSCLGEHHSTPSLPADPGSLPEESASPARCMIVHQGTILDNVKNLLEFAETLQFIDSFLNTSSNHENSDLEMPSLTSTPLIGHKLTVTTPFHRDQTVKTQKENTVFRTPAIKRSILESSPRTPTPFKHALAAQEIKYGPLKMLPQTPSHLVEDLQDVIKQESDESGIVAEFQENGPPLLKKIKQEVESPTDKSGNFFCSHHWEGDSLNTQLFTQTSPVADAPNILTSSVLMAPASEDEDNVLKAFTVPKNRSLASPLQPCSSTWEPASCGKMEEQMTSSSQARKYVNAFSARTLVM

Row | Structure (SMILES) | IC50 [1] | IC50 (HCT-116 [2]) | IC50 at 72 h [3] | IC50 (HCT-116 [4]) | IC50 [6] | Activity [7] | Activity [8] | Activity (Tubulin (Homo sapiens) [9]) | IC50 (MCF7) | inhibition (Sus scrofa) | IC50 (KB-V1 [10]) | Activity [11] | Activity (518A2 [13]) | IC50 (HeLa) | IC50 (518A2 [14]) | Activity (Tubulin (Homo sapiens) [15]) | Activity (Tubulin (Homo sapiens) [16]) | IC50 (KB-V1 [17]) | IC50 (HT-29) | also measured
1 | N#CC1=C(N)Oc2c(ccc3ccccc23)C1c1ccc(Cl)c(F)c1 (configuration not stated) | 16 nM |  |  |  |  |  |  |  |  |  |  |  |  |  |  |  |  |  |  | 
2 | CCCOc1c(OC)cc(C2C(C#N)=C(N)Oc3c2ccc2ccccc32)cc1OC (configuration not stated) | 30 nM | 68.5 nM | 11.9 nM | 33.1 nM | 27.4 nM | 74.5% | Active | Active | 21.4 nM | Active | 23.1 nM | Toxic | Active | 33.1 nM | 26.1 nM | Active | Active | 16.3 nM | 284 nM | Activity (518A2 [5]): Active; Activity [12]: Toxic
3 | CSc1ccc(C2C(C#N)=C(N)Oc3c2ccc2ccccc32)cc1F (configuration not stated) | 240 nM |  |  |  |  |  |  |  |  |  |  |  |  |  |  |  |  |  |  | 
4 | COc1ccc(C2C(C#N)=C(N)Oc3c2ccc2ccccc32)cc1C (configuration not stated) | 400 nM |  |  |  |  |  |  |  |  |  |  |  |  |  |  |  |  |  |  | 
5 | CN[C@@H]1C[C@H]2O[C@@](C)([C@@H]1OC)n1c3ccccc3c3c4c(c5c6ccccc6n2c5c31)C(=O)NC4 |  |  |  |  |  |  |  |  |  |  |  |  |  |  |  |  |  |  |  | Activity [18]: Active
6 | N#CC1=C(N)Oc2c(ccc3ccccc23)C1c1cccc([N+](=O)[O-])c1 (configuration not stated) | 8.7 nM | 7.57 nM | 29.5 nM | 28.2 nM | 67.7 nM |  |  |  | 182 nM |  | 23.7 nM |  |  | 36.1 nM | 10.8 nM |  |  | 76.1 nM | 32.1 nM | Stability [19]: Stable
7 | COc1ccc(/C=C\c2cc(OC)c(OC)c(OC)c2)cc1O [COMBRETASTATIN A4] |  |  |  |  |  |  |  | Active |  | Active |  |  | Active |  |  | Active | Active |  |  | Stability [19]: Unstable
8 | CCCCOc1c(OC)cc(C2C(C#N)=C(N)Oc3c2ccc2ccccc32)cc1OC (configuration not stated) | 30 nM | 67.4 nM | 78 nM | 172 nM | 46.3 nM | 87.6% | Active | Active | 103 nM | Active | 84.5 nM | Toxic |  | 98.9 nM | 143 nM | Active | Active | 41.6 nM | 671 nM | 
9 | N#CC1=C(N)Oc2c(ccc3ccccc23)C1c1ccc(C#N)cc1 (configuration not stated) | 390 nM |  |  |  |  |  |  |  |  |  |  |  |  |  |  |  |  |  |  | 
10 | C=CCOc1c(OC)cc(C2C(C#N)=C(N)Oc3c2ccc2ccccc32)cc1OC (configuration not stated) | 14 nM | 193 nM | 15.7 nM | 15.9 nM | 5.7 nM | 31.3% | Active | Active | 43.3 nM | Active | 18.7 nM | Toxic | Active | 22.2 nM | 3.6 nM | Active | Active | 15.9 nM | 395 nM | Activity (518A2 [5]): Active
11 | COc1ccc(C2C(C#N)=C(N)Oc3c2ccc2ccccc32)cc1[N+](=O)[O-] (configuration not stated) | 110 nM |  |  |  |  |  |  |  |  |  |  |  |  |  |  |  |  |  |  | 
12 | COc1cc(C2C(C#N)=C(N)Oc3c2ccc2ccccc32)cc(OC)c1OC (configuration not stated) | 9.1 nM | 22.2 nM | 19.9 nM | 27.6 nM | 5.2 nM | 81.4% | Active | Active | 34.1 nM | Active | 26.4 nM | Toxic | Active | 11.3 nM | 28.8 nM | Active | Active | 8.8 nM | 324 nM | Activity (518A2 [5]): Active; Activity [12]: Toxic; Stability [19]: Stable
13 | COc1cc(C2C(C#N)=C(N)Oc3c2ccc2ccccc32)c(Br)c(OC)c1OC (configuration not stated) | 130 nM |  |  |  |  |  |  |  |  |  |  |  |  |  |  |  |  |  |  | 
14 | COc1ccc(C2C(C#N)=C(N)Oc3c2ccc2ccccc32)cc1 (configuration not stated) | 3700 nM |  |  |  |  |  |  |  |  |  |  |  |  |  |  |  |  |  |  | 
15 | CCOc1c(OC)cc(C2C(C#N)=C(N)Oc3c2ccc2ccccc32)cc1OC (configuration not stated) | 14 nM | 22.7 nM | 6.2 nM | 13.1 nM | 10.6 nM | 78.1% | Active | Active | 28.1 nM | Active | 20.9 nM | Toxic | Active | 21.9 nM | 25 nM | Active | Active | 16.5 nM | 269 nM | Activity (518A2 [5]): Active
